Holding throughout (assay): inhibition of tumour cell growth, NCI panel, 48 h
Test [1] concerns U251 CNS.
Test [2] relates to HCT-116 colon.
Test [3] relates to A498 renal.
For test [4], the system named is HL-60(TB) leukemia.
For test [5], the system named is LOX IMVI melanoma.
Test [6] relates to SN12C renal.
For test [7], the system named is TK-10 renal.
Test [8] deals with HCC-2998 colon.
The test system of test [9] is MALME-3M melanoma.
Test [10] deals with SK-MEL-5 melanoma.

The text below walks through data of PubChem BioAssay (NCI).

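Five compound concentrations were applied to cells in 96-well plates for 48 hours; endpoints were derived by simple linear interpolation of the resulting dose-response curve. Here, GI50 denotes the concentration required for 50% inhibition of growth. Definition used: TGI = concentration required for complete inhibition of growth.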 Bounds are passed on as bounds.

Turning to `Cc1nc(N)sc1C(=O)/C=C\c1ccc2c(c1)OCO2`, the TGI in test [1], in test [2], in test [3], in test [4], in test [5] and in test [6] was greater than 100 µM throughout. For the same compound, the TGI in test [7], in [8], in [9] and in [10] was greater than 100 µM each time.
Turning to `CCOC(=O)C1=C(C)N(NC(=O)Nc2ccccc2)C(=O)C1=P(c1ccccc1)(c1ccccc1)c1ccccc1`, the TGI in [1] is greater than 100 µM; in test [2], greater than 100 µM; in [3] it was greater than 100 µM; in [4], 50.4 µM; in test [5] it was greater than 100 µM; in test [6] it was greater than 100 µM. For the same compound, the TGI in test [7], in test [8], in [9] and in test [10] was greater than 100 µM throughout.
In the case of `COC(=O)C1=C(C)N(NC(=O)OC(C)(C)C)C(=O)C1=P(c1ccccc1)(c1ccccc1)c1ccccc1`, the TGI in test [1], in test [2], in test [3], in [4], in [5] and in [6] was greater than 100 µM each time. Moreover, the TGI in [7], in test [8], in test [9] and in [10] was greater than 100 µM throughout.
In the case of `NS(=O)(=O)c1ccc(NC2(C(=O)O)CCCC2)cc1`, the TGI in test [1], in test [2], in test [3], in test [4], in test [5] and in test [6] was greater than 100 µM each time. The TGI in test [7], in test [8], in test [9] and in test [10] was greater than 100 µM throughout.
As to `COc1ccc(Cn2cc3c(c2-c2ccccc2)CC(C)(C)c2cnoc2-3)cc1`, the GI50 in test [1] was 2.99 µM; in test [2], 1.47 µM; in [3] it was 1.4 µM; in [4], 0.82 µM; in [5], 3.55 µM; in test [6], 4.46 µM. In addition, the GI50 in [7] was 2.91 µM; in test [8], 2.91 µM; in [9] it was 1.63 µM; in test [10], 1.6 µM. Besides, the TGI in test [1] was greater than 100 µM; in test [2], greater than 100 µM; in test [3], 7.72 µM; in test [4] it was 4.29 µM; in test [5] it was greater than 100 µM; in [6], greater than 100 µM. In addition, the TGI in test [7] is greater than 100 µM; in test [8], greater than 100 µM; in test [9], greater than 100 µM; in [10], 9.61 µM.
Consider `C=C1C(=O)O[C@@H]2/C=C(\C)CC/C=C(/COC(C)=O)C[C@@H](OC(C)=O)[C@@H]12`, for which the TGI in test [1] amounted to 36.7 µM; in test [2], 14.6 µM; in test [3] it was 36.6 µM; in test [4], 8.52 µM; in test [5], 13.1 µM; in test [6], 24.9 µM. Further, the TGI was 23.2 µM in test [7], 30.2 µM in test [8], 8.85 µM in test [9] and 25.7 µM in test [10].
On to `CCC[CH2][Sn]1([CH2]CCC)[O]CC(CN2CCCC2)[O]1` (centres undefined), for which the GI50 in test [1] is 15.3 µM; in [2], 16.9 µM; in test [3], 28.5 µM; in test [4], 3.87 µM; in [5], 12.3 µM; in test [6], 16.7 µM. Moreover, the GI50 in test [7] is 12 µM; in [8], 14.3 µM; in test [9], 4.59 µM; in [10], 17.9 µM. In addition, the TGI in test [1] was determined as 29.1 µM; in test [2], 30.6 µM; in test [3], 46.9 µM; in test [4], 15.2 µM; in [5] it was 26.8 µM; in [6], 31 µM. For the same compound, the TGI in [7] worked out at 24.3 µM; in test [8] it was 28.5 µM; in [9] it was 17.4 µM; in test [10], 33.4 µM.
In the case of `Cc1cccc(NC(=O)C(=O)C(C(=O)c2ccc3ccccc3c2)C2OC(=O)c3ccccc32)c1C` (centres undefined), the TGI in [1] amounted to 23.1 µM; in test [2], 22.2 µM; in test [3] it was 24.2 µM; in test [4], 68.5 µM; in test [5], 30.4 µM; in test [6], 40.4 µM. Further, the TGI in test [7] worked out at 50.9 µM; in test [8] it was 19.5 µM; in test [9], 21.7 µM; in test [10] it was 25.9 µM.
For `COc1cc(C(C)O)c[n+](CCc2c[nH]c3ccccc23)c1` (centres undefined), the TGI in test [1], in test [2], in test [3], in test [4], in test [5] and in test [6] was greater than 100 µM in each case. The TGI in [7], in test [8], in test [9] and in [10] was greater than 100 µM each time.
`CC(C)(C)c1ccc2c(c1)S(=O)(=O)Nc1ccccc1NS(=O)(=O)c1cc(C(C)(C)C)ccc1OCCOCCOCCO2`: the TGI in test [1], in test [2], in test [3], in test [4], in test [5] and in test [6] was greater than 100 µM in each case. Also, the TGI in test [7] was greater than 100 µM; in test [8], greater than 100 µM; in test [9] it was 97 µM; in test [10] it was greater than 100 µM.
In the case of `COc1cc(-c2ccc3c(c2)NC(=O)/C3=C\c2ccc[nH]2)ccc1O`, the GI50 in [1] is 0.0221 µM; in [2], 0.0228 µM; in test [3], 2.09 µM; in [4] it was 0.0155 µM; in test [5], 0.0353 µM; in [6], 0.0423 µM. Moreover, the GI50 in test [7] was 1.72 µM; in [8], 0.0981 µM; in test [9] it was 2.65 µM; in test [10] it was 0.0368 µM. The TGI was greater than 50 µM in test [1]; greater than 50 µM in test [2]; 39.2 µM in test [3]; greater than 50 µM in [5]; greater than 50 µM in test [6]; greater than 50 µM in test [7]. The values for the TGI in test [8], in test [9] and in [10] were 1.84 µM, greater than 50 µM and 1.69 µM, respectively.
